Results on one compound are retold here after BindingDB's records for doi:10.1021/acs.jmedchem.0c02247 (Nanjing University of Chinese Medicine, 2021).

As a reminder, the IC50 is the midpoint of a concentration-inhibition curve.

The nature of assay [1]: Inhibition of FLT3 ITD mutant (unknown origin) expressed in mouse BaF3 cells assessed as antiproliferative activity incubated for 72 hrs by CCK8 assay.
A short description of assay [2]: Inhibition of TEL-FLT3 D835V mutant (unknown origin) expressed in mouse BaF3 cells assessed as antiproliferative activity incubated for 72 hrs by CCK8 assay.
The nature of assay [3]: Inhibition of FLT3 ITD/D835V double mutant (unknown origin) expressed in mouse BaF3 cells assessed as antiproliferative activity incubated for 72 hrs by CCK8 assay. For orientation: Tetrazolium assays rely on reduction of a dye to a coloured formazan, in cell work by metabolically active cells.

`Cc1c(NC(=O)CCN2CCCC2)c[nH]c1/C=C1\C(=O)Nc2ccc(F)cc21`: the IC50 in assay [1] came out at 13 nM; in assay [2] it was 30 nM; in assay [3], 27 nM.
